Calls of active or inactive are those of the source. The calls are words filed in the database; no cut-off is given here.
Columns and labels:
Sclerotinia sclerotiorum = experiment: Antimicrobial activity against Sclerotinia libertiana; assay type: functional
Cyberlindnera jadinii = experiment: Antimicrobial activity against Candida utilis; assay type: functional
Schistocerca nitens = experiment: Antifeedant activity in Schistocerca vaga by choice test; assay type: functional, organism-based
Spodoptera exempta = experiment: Antifeedant activity in Spodoptera exempta by choice test; assay type: functional
Schistocerca gregaria = experiment: Antifeedant activity in Schistocerca gregaria at 0.01% dry weight of fiber disc containing 5% sucrose by choice test; assay type: functional
Saccharomyces cerevisiae = experiment: Antimicrobial activity against Saccharomyces cerevisiae; assay type: functional
Radix natalensis = experiment: Molluscicidal activity against Lymnaea natalensis after 2 hrs; assay type: functional
[1] = Acute toxicity in sc dosed mouse; assay type: organism-based; settings: in vivo
Spodoptera eridania = experiment: Antifeedant activity in Spodoptera eridania by choice test; assay type: functional, organism-based
Manduca sexta = experiment: Antifeedant activity in Manduca sexta by choice test; assay type: functional, organism-based
Mucor mucedo = experiment: Antimicrobial activity against Mucor mucedo; assay type: functional
Spodoptera littoralis = experiment: Antifeedant activity in Spodoptera littoralis by choice test; assay type: functional
KB = experiment: Cytotoxicity against human KB cells; assay type: functional
Locusta migratoria = experiment: Antifeedant activity in Locusta migratoria at 0.01% dry weight of fiber disc containing 5% sucrose by choice test; assay type: functional
Epilachna varivestis = experiment: Antifeedant activity in Epilachna varivestis by choice test; assay type: functional, organism-based
Biomphalaria pfeifferi = experiment: Molluscicidal activity against Biomphalaria pfeifferi after 2 hrs; assay type: functional
Biomphalaria glabrata = experiment: Molluscicidal activity against Biomphalaria glabrata after 2 hrs; assay type: functional

SMILES: CC1(C)CCC[C@@]2(C)[C@H]1CC=C(C=O)[C@]2(O)C=O [WARBURGANAL]
- Activity (Sclerotinia sclerotiorum): 50 µg/mL
- Activity (Cyberlindnera jadinii): 3.1 µg/mL
- Activity (Schistocerca nitens): inactive
- Activity (Spodoptera exempta): 0.1 ppm
- Activity (Schistocerca gregaria): 85%
- Activity (Saccharomyces cerevisiae): 12.5 µg/mL
- Activity (Radix natalensis): 10 ppm
- LD50 [1]: 20.4 mg/kg
- Activity (Spodoptera eridania): inactive
- Activity (Manduca sexta): inactive
- Activity (Mucor mucedo): 100 µg/mL
- Activity (Spodoptera littoralis): 10 ppm
- Activity (KB): 0.01 µg/mL
- Activity (Locusta migratoria): 85%
- Activity (Epilachna varivestis): inactive
- Activity (Biomphalaria pfeifferi): 5 ppm
- Activity (Biomphalaria glabrata): 5 ppm

Source: ChEMBL document CHEMBL1151380, “Recent Studies on Bioactive Compounds From Plants” (J Nat Prod, 1982)
